Experimental data published in patent US9487489B2, “Halogen-substituted pyrazole derivatives as pest-control agents” (BAYER CROPSCIENCE AKTIENGESELLSCHAFT, priority 2013, dated 2016).

Experiments:
[1] = test system: cattle ticks (Boophilus microplus) Parkhurst strain, SP-resistant; test: Boophilus microplus dip test (BOOPMI Dip); format: in vivo; settings: application rate 100 ppm, assessed after 7 days
Experimental: B. Boophilus microplus-dip Test (BOOPMI Dip)
Test animals: cattle ticks (Boophilus microplus) Parkhurst strain, SP-resistant
Solvent: dimethyl sulphoxide
10 mg of active compound are dissolved in 0.5 ml of dimethyl sulphoxide. For the purpose of preparing a suitable formulation, the active compound solution is diluted with water to the concentration desired in each case.
This active compound preparation is pipetted into tubes. 8-10 adult engorged female cattle ticks (Boophilus microplus) are transferred into a further tube with holes. The tube is immersed into the active compound formulation, and all ticks are completely wetted. After the liquid has run out, the ticks are transferred on filter discs into plastic dishes and stored in a climate-controlled room.
The activity is assessed after 7 days by laying of fertile eggs. Eggs whose fertility is not visible from the outside are stored in a climate-controlled cabinet until the larvae hatch after about 42 days. An efficacy of 100% means that none of the ticks has laid any fertile eggs; 0% means that all eggs are fertile.

[2] = test system: engorged adult female cattle ticks (Boophilus microplus); test: Boophilus microplus injection test (BOOPMI Inj); format: in vivo; settings: application rate 20 μg/animal; injection into abdomen; assessed after 7 days
In short: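 DMSO solution of compound (1 μl) injected into the abdomen of 5 engorged adult female ticks, which are then held in a climate-controlled room. After 7 days, efficacy is scored from laying of fertile eggs, with unclear eggs kept until larval hatch (~42 days); 100% means no fertile eggs, 0% all fertile.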

[3] = test system: larvae of the mustard beetle (Phaedon cochleariae); test: Phaedon cochleariae spray test (PHAECO); format: in vivo; settings: Chinese cabbage leaf discs, after 7 days
In short: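 Compound dissolved in acetone/dimethylformamide with alkylaryl polyglycol ether emulsifier, made up in water containing 1000 ppm emulsifier, then diluted to test concentrations and sprayed against mustard beetle larvae. Efficacy (% larvae killed) scored after 7 days.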

[4] = test system: adult cat fleas (Ctenocephalides felis); test: Ctenocephalides felis oral test (CTECFE); format: in vivo; settings: application rate 100 ppm in citrated cattle blood; after 2 days
In short: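 About 20 unfed adult cat fleas fed through parafilm membrane on citrated cattle blood containing compound (DMSO stock diluted in blood to test concentration). Kill % scored after 2 days (100% = all fleas dead).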

[5] = logP determination by HPLC on a reversed-phase column (C18), EEC Directive 79/831 Annex V.A8; format: physicochemical; settings: HPLC on reversed-phase column (C18), acetonitrile/water with formic acid, EEC Directive 79/831 Annex V.A8
In short: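 Retention on a C18 reversed-phase column (Zorbax Eclipse Plus, 1.8 micron) was used, eluting with acetonitrile/water, each containing formic acid. The gradient ran from 10% to 95% acetonitrile over 4.25 min, then held 1.25 min, at 55° C and 2.0 ml/min, with MS detection.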

[6] = test system: caterpillars of the armyworm (Spodoptera frugiperda); test: Spodoptera frugiperda spray test (SPODFR); format: in vivo; settings: maize leaf discs, after 7 days
In short: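 Maize leaf discs sprayed with compound in acetone/DMF with alkylaryl polyglycol ether emulsifier (1000 ppm) in water, dried, then infested with armyworm caterpillars. Mortality (%) scored after 7 days; 100% = all caterpillars killed, 0% = none killed.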

[7] = test system: adult cat fleas (Ctenocephalides felis); test: Ctenocephalides felis in vitro contact test with adult cat fleas (T1); settings: after 48 h
In short: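 Test compound was dissolved in acetone p.a. (9 mg per 1 ml) and diluted as needed. 250 μl was spread evenly over the inner walls and floor of a 25 ml test tube by rotating on an orbital shaker for 2 h at 30 rpm. Once the solvent evaporated, 5-10 adult Ctenocephalides felis were added. Tubes were capped with a perforated plastic lid and kept horizontal at room temperature and ambient humidity.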

[8] = test system: adult houseflies (Musca domestica); test: Musca domestica test (MUSCDO); format: in vivo; settings: application rate 100 ppm; after 2 days
In short: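 Compound dissolved in DMSO and diluted with water to the test concentration, applied with sugar solution on a sponge; 10 adult houseflies per vessel. Mortality scored after 2 days as % kill (100% all dead, 0% none).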

[9] = test system: greenhouse red spider mite (Tetranychus urticae); test: Tetranychus urticae spray test, OP-resistant (TETRUR); format: in vivo; settings: bean leaf discs, after 6 days
In short: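 Bean leaf discs carrying all stages of OP-resistant Tetranychus urticae were sprayed with compound formulated in acetone/dimethylformamide and diluted in water with 1000 ppm alkylaryl polyglycol ether emulsifier. Mortality (% efficacy, 100% = all mites killed) scored after 6 days.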

[10] = test system: L1 larvae of the Australian sheep blowfly (Lucilia cuprina); test: Lucilia cuprina test (LUCICU); format: in vivo; settings: application rate 100 ppm; after 2 days
In short: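 About 20 L1 larvae placed in a vessel with minced horsemeat plus compound (DMSO concentrate diluted with water to the desired concentration). Kill in % scored after 2 days, 100% meaning all larvae dead.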

[11] = test system: green peach aphid (Myzus persicae); test: Myzus persicae spray test (MYZUPE); format: in vivo; settings: Chinese cabbage leaf discs, after 6 days
In short: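 Chinese cabbage leaf discs infested with all aphid stages sprayed with compound in acetone/DMF with alkylaryl polyglycol ether emulsifier in water. Efficacy (% aphids killed; 100% all dead, 0% none) scored after 6 days.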

[12] = test system: adult dog ticks (Rhipicephalus sanguineus); test: Rhipicephalus sanguineus in vitro contact test with adult brown dog ticks (T2); settings: after 48 h
In short: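 Acetone solutions coated onto test tube walls and floor, giving 5 μg/cm^2 at 900 ppm. Five to ten adult ticks held per tube in the dark at room temperature for 48 h, then heated at 45-50° C for up to 5 min; efficacy is the percentage of dead or moribund ticks unable to climb away.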

| Compound | efficacy (laying of fertile eggs) [1] [%] | efficacy (laying of fertile eggs) [2] [%] | efficacy in % ([3]; application rate 100 g/ha) [%] | efficacy (kill in %) [4] [%] | logP [5] | efficacy in % ([6]; application rate 100 g/ha) [%] | efficacy (dead or moribund fleas) ([7]; application rate 1 μg/cm^2) [%] | efficacy (dead or moribund fleas) ([7]; application rate 5 μg/cm^2) [%] | efficacy (kill in %) [8] [%] | efficacy in % ([9]; application rate 100 g/ha) [%] | efficacy (kill in %) [10] [%] | efficacy in % ([11]; application rate 100 g/ha) [%] | efficacy in % ([3]; application rate 500 g/ha) [%] | efficacy in % ([6]; application rate 500 g/ha) [%] | efficacy in % ([9]; application rate 500 g/ha) [%] | efficacy in % ([11]; application rate 500 g/ha) [%] | efficacy (dead or moribund ticks) ([12]; application rate 1 μg/cm^2) [%] | efficacy (dead or moribund ticks) ([12]; application rate 5 μg/cm^2) [%] |
| --- | --- | --- | --- | --- | --- | --- | --- | --- | --- | --- | --- | --- | --- | --- | --- | --- | --- | --- |
| Cn1nc(C(F)(F)C(F)(F)F)c(C(F)(F)F)c1-n1cc(-c2ccc([N+](=O)[O-])c(C(=O)NC3(C#N)CC3)c2)cn1 [Ic-65] | 100 | 100 | 100 | 100 | 3.48 | 83 | 100 | 100 | 100 | 100 | 100 | 90 | – | – | – | – | – | – |
| Cn1nc(C(F)(F)C(F)(F)F)c(C(F)(F)F)c1-n1cc(-c2ccc(Cl)c(C(=O)NCC(C)(F)F)c2)cn1 [Ic-80] | 80 | 100 | 100 | 100 | 4.05 | 100 | – | – | 100 | 100 | 100 | 90 | – | – | – | – | – | – |
| CNC(=O)C1(N(C)C(=O)c2cc(-c3cnn(-c4c(C(F)(F)F)c(C(F)(F)C(F)(F)F)nn4C)c3)ccc2Cl)CC1 [Ic-97] | 90 | 100 | – | 100 | 3.58 | – | 100 | 100 | 100 | – | 100 | – | 100 | 100 | 100 | 100 | – | – |
| C#CCNC(=O)c1cc(-c2cnn(-c3c(C(F)(F)F)c(C(F)(F)C(F)(F)F)nn3C)c2)ccc1Cl [Ic-109] | 100 | – | 100 | – | 3.69 | 100 | 100 | 100 | – | 100 | – | 100 | – | – | – | – | 100 | 100 |
| C=C=CCNC(=O)c1cc(-c2cnn(-c3c(C(F)(F)F)c(C(F)(F)C(F)(F)F)nn3C)c2)ccc1Cl [Ic-111] | 100 | – | 100 | – | 4.04 | 100 | 100 | 100 | – | 100 | – | 100 | – | – | – | – | 100 | 100 |
| CC(C)NC(=O)c1cc(-c2cnn(-c3c(C(F)(F)F)c(C(F)(F)C(F)(F)F)nn3C)c2)ccc1Cl [Ic-113] | 100 | – | 100 | – | 4.01 | 100 | 100 | 100 | – | 100 | – | 90 | – | – | – | – | 80 | 100 |
